{"source": "patent US20210388337A1", "about": "“PROTEIN-POLYMER CONJUGATES AND METHODS FOR THEIR PREPARATION” (Carnegie Mellon University, priority 2018, published 2021)", "key": {"Biotin-HRP": {"system": "Biotin-HRP", "assay": "Stopped-flow biotin-protein binding kinetics, biotin-HRP", "details": "avidin 0.5 μM, biotin-protein 5.0 μM, 0.1 M phosphate buffer pH 8", "experimental": "(§1) The solution was stirred at 4° C. for 2 hours and protein-biotin conjugates were purified by dialysis using 15 kDa molecular mass cutoff dialysis tube in deionized water and then lyophilized.\n(§2) Biotin-Protein binding kinetics: For biotinylated protein binding kinetics avidin conjugates (0.5 μM final) were mixed with biotin-protein (5.0 μM final) in a stopped-flow accessory on PTI QuantaMaster-400 fluorometer (Horiba Instruments Inc.). The dead time of the instrument was 60 ms. The excitation wavelength was 295 nm (to selectively excite tryptophan residues) with a 20 nm bandwidth (Skelly et al., FEBS Lett 262:127-130, 1990). Excitation occurred through a 1.96-mm path in the stopped-flow optical cell, and emission was measured through a 7.68-mm path. […]\n(§3) Instrumentation and Sample Analysis Preparations: ^1H and ^13C NMR were recorded on a spectrometer (300 MHz, 75 MHz, Bruker Avance™ 300), with deuterium oxide (D2O), DMSO-d6, and CDCl3. […] Melting points (mp) were measured with a Laboratory Devices Mel-Temp. […] The hydrodynamic diameter of samples was measured three times (5 run to each measurement, reported as number distribution) in 0.1 M sodium phosphate, pH 8. Biotin and bio-PEG binding kinetics were measured using a stopped-flow spectrometer with fluorescence detection (Applied Photophysics SX20). […] The excitation wavelength was set to 295 nm and emission wavelength was monitored at 340 nm. […]"}, "[1]": {"details": "work described elsewhere (Kurzban et al.); 337 to 324 nm, blue shift in emission; cited from earlier work"}, "[2]": {"assay": "Stopped-flow biotin-PEG binding kinetics, 30 kDa", "details": "avidin 0.5 μM, biotin-PEG 5.0 μM, 0.1 M phosphate buffer pH 8", "experimental": "(§4) Biotin and biotin PEG binding kinetics: Kinetic measurements of avidin-pCBMA conjugates with biotin and biotin-PEG substrates were taken using a stopped-flow spectrometer with fluorescence detection (Applied Photophysics SX20). The dead time of the instrument was 2 ms. The excitation wavelength was 270 nm with 5 nm bandwidth. Instrument permitted to collect 1000 data points throughput the reaction (0.1-450 s). For all experiments avidin concentration was 0.5 μM (final) and biotin or biotin-PEG concentration was 5.0 μM (final). Reactions were initiated by mixing equal volumes of avidin with its substrates in 0.1 M phosphate buffer, pH 8. Fluorescence was measured in volts. Data were fit to single exponential functions using F(t)=F∞·ΔFexp(−kobst) equation, where, kobs is the observed first-order rate constant, F∞ is the final value of fluorescence and ΔF is the amplitude. In case of native avidin kinetics the data were fit to single exponential functions using F(t)=F∞+ΔFexp(−kobst) equation, where, kobs is the observed first-order rate constant, F∞ is the final value of fluorescence and ΔF is the amplitude. […]\n(§5) Instrumentation and Sample Analysis Preparations: ^1H and ^13C NMR were recorded on a spectrometer (300 MHz, 75 MHz, Bruker Avance™ 300), with deuterium oxide (D2O), DMSO-d6, and CDCl3. […] Melting points (mp) were measured with a Laboratory Devices Mel-Temp. […]"}, "[3]": {"assay": "Stopped-flow biotin-PEG binding kinetics, 5 kDa", "details": "avidin 0.5 μM, biotin-PEG 5.0 μM, 0.1 M phosphate buffer pH 8", "experimental": "as §4, §5"}, "[4]": {"assay": "Stopped-flow biotin-PEG binding kinetics, 550 Da", "details": "for Biotin-PEG 550 Da k/s^−1: avidin 0.5 μM, biotin-PEG 5.0 μM, 0.1 M phosphate buffer pH 8", "experimental": "Biotin and biotin PEG binding kinetics: Kinetic measurements of avidin-pCBMA conjugates with biotin and biotin-PEG substrates were taken using a stopped-flow spectrometer with fluorescence detection (Applied Photophysics SX20). The dead time of the instrument was 2 ms. The excitation wavelength was 270 nm with 5 nm bandwidth. Instrument permitted to collect 1000 data points throughput the reaction (0.1-450 s). For all experiments avidin concentration was 0.5 μM (final) and biotin or biotin-PEG concentration was 5.0 μM (final). Reactions were initiated by mixing equal volumes of avidin with its substrates in 0.1 M phosphate buffer, pH 8. Fluorescence was measured in volts. Data were fit to single exponential functions using F(t)=F∞·ΔFexp(−kobst) equation, where, kobs is the observed first-order rate constant, F∞ is the final value of fluorescence and ΔF is the amplitude. In case of native avidin kinetics the data were fit to single exponential functions using F(t)=F∞+ΔFexp(−kobst) equation, where, kobs is the observed first-order rate constant, F∞ is the final value of fluorescence and ΔF is the amplitude. All data analysis was performed in Microsoft Excel.\nInstrumentation and Sample Analysis Preparations: ^1H and ^13C NMR were recorded on a spectrometer (300 MHz, 75 MHz, Bruker Avance™ 300), with deuterium oxide (D2O), DMSO-d6, and CDCl3. Routine FT-IR spectra were obtained with a Nicolet Magna-IR 560 spectrometer (Thermo). UV-VIS spectra were obtained and used for protein concentration determination using a UV-VIS spectrometer (Lambda 2, PerkinElmer). Melting points (mp) were measured with a Laboratory Devices Mel-Temp. […] The hydrodynamic diameter of samples was measured three times (5 run to each measurement, reported as number distribution) in 0.1 M sodium phosphate, pH 8. Biotin and bio-PEG binding kinetics were measured using a stopped-flow spectrometer with fluorescence detection (Applied Photophysics SX20). […] The excitation wavelength was set to 295 nm and emission wavelength was monitored at 340 nm. […] Fluorescence was measured in volts."}, "Biotin-aprotinin": {"molecular_target": "T1, Biotin-aprotinin (Bos taurus, UniProt P00974)", "T1 construct": "purchased Sigma Aldrich", "assay": "Stopped-flow biotin-protein binding kinetics, biotin-aprotinin", "details": "avidin 0.5 μM, biotin-protein 5.0 μM, 0.1 M phosphate buffer pH 8", "experimental": "as §1, §2, §3"}, "[5]": {"assay": "Stopped-flow biotin-PEG binding kinetics, 10 kDa", "details": "avidin 0.5 μM, biotin-PEG 5.0 μM, 0.1 M phosphate buffer pH 8", "experimental": "as §4, §5"}, "[6]": {"assay": "Stopped-flow binding kinetics of biotin to avidin and avidin-pCBMA conjugates", "details": "kobs first-order, avidin 0.5 μM, biotin 5.0 μM, 0.1 M phosphate buffer pH 8", "experimental": "as §4, §5"}, "[7]": {"assay": "Hydrodynamic diameter by dynamic light scattering", "type": "physicochemical", "details": "DLS; for substrate size (Dh): biotinylated substrates, text and FIG. 10 legend", "experimental": "Measuring conjugate hydrodynamic diameter: The DLS data was collected on a Malvern Zetasizer nano-ZS. Native avidin and avidin conjugates ([…]) were dissolved in 0.1 M sodium phosphate, pH 8. The hydrodynamic diameter (Dh) of the samples was measured three times (12 runs/measurement). Reported values are number distribution intensities.\nInstrumentation and Sample Analysis Preparations: ^1H and ^13C NMR were recorded on a spectrometer (300 MHz, 75 MHz, Bruker Avance™ 300), with deuterium oxide (D2O), DMSO-d6, and CDCl3. Routine FT-IR spectra were obtained with a Nicolet Magna-IR 560 spectrometer (Thermo). UV-VIS spectra were obtained and used for protein concentration determination using a UV-VIS spectrometer (Lambda 2, PerkinElmer). Melting points (mp) were measured with a Laboratory Devices Mel-Temp. Number and weight average molecular weights (Mn and Mw) and the polydispersity index (Mw/Mn) were estimated by gel permeation chromatography (GPC) on a Water 2695 Series with a data processor, equipped with three columns (Waters Ultrahydrogel Linier, 500 and 250), using Dulbecco's Phosphate Buffered Saline with 0.02 wt % sodium azide as an eluent at flow rate 1.0 mL/min, with detection by a refractive index (RI) detector. Pullulan standards (PSS-Polymer Standards Service—USA Inc., Amherst, Mass.) were used for calibration. Matrix-Assisted Laser Desorption Ionization Time-of-Flight Spectrometry (MALDI-ToF MS) was performed with a Perseptive Biosystems Voyager Elite MALDI-TOF spectrometer. Dynamic Light Scattering (DLS) data were collected on a Malvern Zetasizer nano-ZS. The concentration of the sample solution was kept at 1.0 mg/mL. The hydrodynamic diameter of samples was measured three times (5 run to each measurement, reported as number distribution) in 0.1 M sodium phosphate, pH 8. Biotin and bio-PEG binding kinetics were measured using a stopped-flow spectrometer with fluorescence detection (Applied Photophysics SX20). […] The excitation wavelength was set to 295 nm and emission wavelength was monitored at 340 nm. […] Fluorescence was measured in volts."}, "native avidin [8]": {"molecular_target": "T2, native avidin (Gallus gallus, UniProt P02701)", "T2 construct": "Avidin is a tetrameric protein purified from egg white; purchased Lee Biosolutions; host or cells: egg white", "assay": "Biotin effect on quenched fluorescence", "type": "binding", "details": "native avidin 5 μM; free initiator or free initiation inhibitor 5.12 mM; biotin 10 μM", "experimental": "Biotin effect on quenched fluorescence: […] Free initiator (10 μL, final concentrations 5.12 mM) or free initiation inhibitor (10 μL, final concentrations 5.12 mM) were added to avidin solution and florescence intensities were measured. After the fluorescence intensities were recorded with free initiator or free initiation inhibitor, biotin (10 μL, final concentration 10 μM) was added to the mixture and fluorescence intensities were measured again."}, "native avidin [9]": {"molecular_target": "T2, native avidin", "assay": "Tryptophan fluorescence quenching assay", "type": "binding", "details": "native avidin 5 μM; added at 20 μM-5.12 mM", "experimental": "Tryptophan fluorescence quenching assay: Intrinsic tryptophan fluorescence intensity of native avidin (180 μL, final concentration 5 μM) was measured at an excitation wavelength of 270 nm and emission of 300-400 nm in a 96-well plate. N-2-bromo-2-methylpropanoyl-β-alanine (free initiator) (20 μL, final concentrations 20 μM, 80 μM, 320 μM, 1.28 mM, 5.12 mM) or N-2-methylpropanoyl-β-alanine (free initiation inhibitor) (20 μL, final concentrations 20 μM, 80 μM, 320 μM, 1.28 mM, 5.12 mM) were added to native avidin and tryptophan fluorescence was measured again."}, "[10]": {"details": "Table 4, low-density avidin conjugates"}, "[11]": {"details": "Table 9, high-density avidin conjugates"}}}
{"molecule": "Native avidin", "values": [{"measurement": "Biotin-HRP k/s^−1", "setting": "Biotin-HRP; [10]", "result": 5.03, "unit": "s⁻¹"}, {"measurement": "Biotin-HRP k/s^−1", "setting": "Biotin-HRP; [11]", "result": 5.03, "unit": "s⁻¹"}, {"measurement": "intrinsic tryptophan fluorescence of avidin upon biotin binding", "setting": "[1]", "result": "decreased"}, {"measurement": "Biotin-PEG 30 kDa k/s^−1", "setting": "[2]; [10]", "result": 5.89, "unit": "s⁻¹"}, {"measurement": "Biotin-PEG 30 kDa k/s^−1", "setting": "[2]; [11]", "result": 5.89, "unit": "s⁻¹"}, {"measurement": "Biotin-PEG 5 kDa k/s^−1", "setting": "[3]; [10]", "result": 17.02, "unit": "s⁻¹"}, {"measurement": "Biotin-PEG 5 kDa k/s^−1", "setting": "[3]; [11]", "result": 17.02, "unit": "s⁻¹"}, {"measurement": "Biotin-PEG 550 Da k/s^−1", "setting": "[4]; [10]", "result": 20.93, "unit": "s⁻¹"}, {"measurement": "Biotin-PEG 550 Da k/s^−1", "setting": "[4]; [11]", "result": 20.93, "unit": "s⁻¹"}, {"measurement": "binding rate of biotin-PEG 550 Da, slower than biotin", "setting": "[4]; relative to biotin binding rate", "result": 80, "unit": "%"}, {"measurement": "Biotin-aprotinin k/s^−1", "setting": "Biotin-aprotinin; [10]", "result": 73.45, "unit": "s⁻¹"}, {"measurement": "Biotin-aprotinin k/s^−1", "setting": "Biotin-aprotinin; [11]", "result": 73.45, "unit": "s⁻¹"}, {"measurement": "Biotin-PEG 10 kDa k/s^−1", "setting": "[5]; [10]", "result": 12.02, "unit": "s⁻¹"}, {"measurement": "Biotin-PEG 10 kDa k/s^−1", "setting": "[5]; [11]", "result": 12.02, "unit": "s⁻¹"}, {"measurement": "Biotin k/s^−1", "setting": "[6]; [10]", "result": 105.21, "unit": "s⁻¹"}, {"measurement": "Biotin k/s^−1", "setting": "[6]; [11]", "result": 105.21, "unit": "s⁻¹"}]}
{"molecule": "Aprotinin [reference compound]", "values": [{"measurement": "Dh (hydrodynamic size)", "setting": "[7]; bio-pro substrates, Table 3", "result": "2.4 ± 0.4"}, {"measurement": "substrate size (Dh)", "setting": "[7]; listed as biotin-aprotinin", "result": "2.4±0.4", "unit": "nm"}, {"measurement": "substrate size (Dh)", "setting": "[7]; listed as biotinylated aprotinin", "result": 2.4, "unit": "nm"}]}
{"molecule": "O=C(O)CCCC[C@@H]1SC[C@@H]2NC(=O)N[C@@H]21", "note": "[biotin]", "values": [{"measurement": "effect on tryptophan fluorescence of native avidin incubated with free initiator or free initiation inhibitor", "setting": "native avidin [8]", "result": "restored the quenched tryptophan fluorescence"}]}
{"molecule": "CC(C)(Br)C(=O)NCCC(=O)O", "note": "[free initiator, N-2-bromo-2-methylpropanoyl-β-alanine]", "values": [{"measurement": "quenching of native avidin tryptophan fluorescence", "setting": "native avidin [9]", "result": "higher degree of fluorescence quenching"}]}
{"molecule": "CC(C)C(=O)NCCC(=O)O", "note": "[free initiation inhibitor, N-2-methylpropanoyl-β-alanine]", "values": [{"measurement": "effect on tryptophan fluorescence of native avidin incubated with free initiator or free initiation inhibitor", "setting": "native avidin [8]", "result": "did not have effect on fluorescence"}, {"measurement": "quenching of native avidin tryptophan fluorescence", "setting": "native avidin [9]", "result": "None of the tested concentrations of initiation inhibitor had an effect on fluorescence"}]}
